Measured values taken from US20240327493A1 (GEORGE MASON UNIVERSITY, priority 2023, published 2024).
“Also recorded” adds a separate entry of the source. Read-outs that look alike come from different tables or passages of the source.

Legend:
[1] = human serum diluted 1:4 in RPMI, MALDI-TOF-MS, up to 6 hours
Protocol: (§1) Human serum was diluted 1:4 in Gibco RPMI 1640 media (ThermoFisher Scientific, Waltham, MA, USA, Cat. No. 11-875-093) for a total of 1 mL and incubated at 37° C. for 15 minutes prior to time course. Next, 1 μL of the peptide stock was added to warmed serum for a final concentration of […] in the master mix. The rest of the time course was performed at room temperature. For each time point, aliquots of 100 μL were removed from the master mix and added to 200 μL of 3% trifluoroacetic acid. Samples were incubated on ice for 15 minutes before centrifugation at 16,000×g for 2.5 minutes. Supernatants were transferred to a clean tube and prepared for desalting via C18 column by adding 100 μL of sample buffer (20% acetonitrile, 2% trifluoroacetic acid) to supernatants before storage at—20° C. overnight. Samples were then processed through Pierce C18 spin columns (ThermoFisher Scientific, Cat. No. 89870) according to the manufacturer's instructions. Desalted samples were dried under nitrogen and stored at −20° C. until mass spectrometry analysis.
For MALDI-TOF-MS analysis, serum stability samples were reconstituted in 200 μL of 0.1% formic acid. Samples were then diluted 1:10 in a MALDI matrix containing a 50 fmol/μL solution of Angiotensin I as a control. […]

[2] = human serum diluted 1:4 in RPMI, ESI-MS, 0, 6, 24, 48 hours
Protocol: Angiotensin I was spiked in and used for normalization.
as §1, with “Desalted samples were dried under nitrogen and stored at −20° C. until mass spectrometry analysis.” left out
For ESI-MS analysis, serum stability samples were run on an Orbitrap Exploris 480 (ThermoFisher Scientific). […] ThermoFisher's Xcalibur 4.0 Data System was used for peptide quantification. […] The samples were batch reprocessed for quantification via peak area. Peptide abundances were normalized based on Angiotensin I abundance and quantified relative to initial abundance.

[3] = tested on: human PBMCs co-cultured with OVCAR8 cells; experiment: Co-culture of OVCAR8 cells and stimulated human PBMCs, 10:1 OVCAR8:PBMC ratio; assay type: cell-based; conditions: MN1.4 450, 100 or 10 μM, 24 hours, FIG. 10A
Protocol: For this model, PBMCs and cancer cells were both stimulated prior to co-culture to promote expression of PD-1 and PD-L1, respectively.
Stimulation of the PBMCs causes them to release inflammatory cytokines including IL-2 and TNFα,
OVCAR8 cells, generously provided by the Gottesman Lab (National Institutes of Health, Bethesda, MD, USA), and MDA-MB-231 cells (American Type Culture Collection, Rockville, MD, USA) were cultured in Gibco RPMI 1640 media (ThermoFisher Scientific, Cat. No. 11-875-093) supplemented with 10% Gibco fetal bovine serum (ThermoFisher Scientific, Cat. No. 10437028), and 1% penicillin/streptomycin (10,000 U/mL pen, 10 mg/mL strcp) from MilliporeSigma (Burlington, MA, USA, Cat. No. P4333). Cells were cultured at 37° C. and 5% CO2. […]
For co-culture experiments with excess OVCAR8 ratios, OVCAR8 cells were seeded at a density of 2×10^5 cells/mL on a 6-well plate and allowed to adhere overnight. […] On Day 3, concentrations of PBMCs and OVCAR8 cells (harvested from a control well) were measured using the QuadCount Automated Cell Counter (Accuris Instruments). The concentration of PBMCs required for a 10:1 OVCAR8:PBMC ratio was calculated from the OVCAR8 concentration. […]
For experiments analyzed via IL-2 PCR-ELISA, the levels of IL-2 in the collected supernatants were measured using the IL-2 Human ProQuantum Immunoassay Kit (ThermoFisher Scientific, Cat. No. A35603). […]

For `CC[C@H](C)[C@@H]1NC(=O)[C@H](CCSC)NC(=O)[C@H](C)NC(=O)[C@H](CCCNC(=N)N)NC(=O)[C@@H](N)CSSC[C@@H](C(=O)O)NC(=O)[C@H]([C@@H](C)CC)NC(=O)[C@H](CCCNC(=N)N)N(C)C(=O)[C@H](CCCCN)NC(=O)[C@H](Cc2ccc(O)cc2)NC(=O)[C@H](CC(=O)O)NC(=O)[C@H](C)NC(=O)CNC(=O)CNC(=O)[C@H](Cc2ccc(O)cc2)NC(=O)[C@H](CO)NC1=O` [SEQ ID NO. 5, CRAMISYGGADYKXIC], the Degradation in serum [1] was “still present after 6 hours in serum without significant degradation”, the Degradation in serum [2] was “not significantly degraded at 48 hours” and the IL-2 secretion [3] was “secretion of IL-2 reduced in a dose dependent manner”. For the same compound, the IL-2 secretion ([3]; listed as MN1.4) was “enhanced the suppression of IL-2 secretion by T cells in a dose-dependent manner; also recorded: decreased released IL-2 in a dose dependent manner”.
